Results on one molecule are retold here after publication PMC6922598, “De novo design of a homo-trimeric amantadine-binding protein” (eLife, 2019).

The assay concerns the target T1, ABP (amantadine-binding protein).
T1 construct: de novo designed homo-trimer; GSHMG//[…]
Briefly: X-ray crystal structure ([…] Å) and neutron structure ([…] Å) of the complex; NMR titration with TITAN line shape fitting (Kd). Set-up: species or system synthetic construct.

In the case of `NC12CC3CC(CC(C3)C1)C2` [amantadine], the Kd (usually the free concentration of one partner at which half of the binding sites on the other are occupied at equilibrium, for simple one-to-one binding) amounted to 24.1 ± 2.7 µM.
